Data reported in publication PMC6426897, “Inhibition of NLRP3 inflammasome activation by cell-permeable stapled peptides” (Scientific Reports, 2019).
Where a SMILES comes first, the peptide text is derived from it. Bridges are numbered along the chain shown (N, C = ends). [ ]: non-standard residue; d: D form. R8 = C=CCCCCCC[C@@](C)(N)C(=O)O; S5 = C=CCCC[C@](C)(N)C(=O)O

Assays:
[1] = test system: NLRP3 inflammasome; experiment: Western blot of processed IL-1β p17 and Casp-1 p20 in THP-1 supernatants and of pro-forms in lysates; type: cell-based, human; settings: THP-1, LPS/nigericin, Fig. 8D
Protocol: (§1) THP-1 cells and monocytes were incubated with NLRP3^PYD (12.5–25–50 μM), ASC^PYD #5 (12.5-25-50-100 μM) or ASC^PYD #6 (12.5-25-50-100 μM) for the indicated durations. Cells were then washed once with PBS and primed with E. coli LPS (0.1 μg/ml, Invivogen) for 4 h followed by stimulation with nigericin (10 μM) for an additional 1 h or ATP ([…]) for an additional 30 min. The cell culture supernatants were then collected and centrifuged at 500 × g to remove cells and cellular debris.
Cell-free supernatants were mixed 1:4 to cold acetone and incubated at −20 °C for at least 1 h. The mixtures were then centrifuged at 15,000 rpm for 15 min at 4 °C. Supernatants were discarded and pellets re-suspended in 1X Laemmli buffer. Total cell lysates were prepared using RIPA buffer containing 150 mM NaCl, 0.5% sodium deoxycholate, 0.1% SDS, 50 mM Tris-HCl pH 8.0 and 1% Triton-X-100. Protein concentrations were determined by BCA assay (Thermo Scientific, cat. 23227) following the manufacturer’s instructions. Lysates were reconstituted in Laemmli buffer (20–50 μg), boiled and separated by SDS–PAGE, and transferred onto PVDF membranes. […]

[2] = test system: NLRP3 inflammasome; experiment: IL-1β secretion from LPS-primed primary human monocytes upon ATP stimulation (ELISA); type: cell-based; settings: human blood monocytes, LPS 0.1 μg/ml 4 h, ATP 30 min; 25, 50 and 100 μM; Fig. 8B
Protocol: (§2) Human monocytic THP-1 cells (1 × 10^7 cells) were plated in a 10-cm tissue culture dish and treated with PMA (200 nM) overnight to differentiate monocytic cells into macrophages. Cells were then washed and allowed to rest in fresh media for another day. For stimulation, differentiated THP-1 cells were trypsinized and seeded in 96-well plates (2 × 10^6/well). Peripheral blood mononuclear cells were isolated by Ficoll-Hypaque density gradient centrifugation from buffy coats obtained from anonymous donors provided by the National University Hospital Blood Bank, Singapore. Isolation of monocytes was performed using negative selection with the Monocyte Isolation Kit II (Miltenyi Biotech), following the manufacturer’s instructions. Monocytes were plated in tissue culture non-treated 96-well plates (2.5 × 10^5/well) in 250 µl RPMI 1640-Glutamax media supplemented with 3% human AB serum (Gemini Bio Products). […]
(§3) IL-1β levels were measured using antibodies from eBioscience (cat. #14-7018-81 and #13-7016-85), following the manufacturer’s instructions. IL-18 levels were measured using antibodies from MBL (D044-3 and D045-6) following the manufacturer’s instructions. The absorbance was measured at 450 nm with the reference wavelength at 570 nm, using an M200 Infinite plate reader (Tecan).

[3] = Circular dichroism, percentage of helicity (K2D3); type: physicochemical; settings: CD, room temperature, water, 100 μM peptide; estimated with K2D3
From the text: The conformation of helix 2 (^16TAEELKKFKLKLLSV^30) bound to ASC^PYD (Fig. 1A) was used as the starting structure for the peptide-protein interaction modeling. Following I,I + 7 stapling scheme, we inserted a hydrocarbon staple across positions 5 and 12 along the peptide and then introduced mutations to produce a set of stapled peptides. Two variants of the template peptide were designed – a short version containing 13 residues (ms_ASC^PYD #6) and a long version containing 15 residues (ms_ASC^PYD #1–5) with two additional residues at the N-terminus (Table 1). These two additional residues were inserted to increase the length of the peptide, thus potentially enabling sufficient conformational flexibility for the region involving the critical Arg3 to remain helical. A similar approach was taken to introduce the staple in the ms_NLRP3^PYD peptide. As determined from Circular Dichroism (CD) spectra, inserting the I,I + 7 staple had the intended effect of increasing helicity of the peptides (Fig. 3). […] Percentage of helicity was much higher for ASC^PYD stapled peptides #5 and #6, 95% and 70% respectively at 100 μM peptide concentration. Percentage of helicity for the peptides were estimated from the web server K2D3[36] using CD data.
Figure 3 Circular dichroism (CD) spectra of (A) NLRP3^PYD and (B) ASC^PYD peptides to measure secondary structures.

[4] = test system: NLRP3 inflammasome; experiment: IL-18 secretion from LPS-primed primary human monocytes upon ATP stimulation (ELISA); type: cell-based; settings: human blood monocytes, LPS 0.1 μg/ml 4 h, ATP 30 min; 25, 50 and 100 μM; Fig. 8B
Protocol: as §2, §3

[5] = test system: NLRP3 inflammasome; experiment: IL-1β release from THP-1 cells stimulated with LPS and nigericin (ELISA); type: cell-based, human; settings: THP-1, LPS 0.1 μg/ml 4 h, nigericin 10 μM 1 h, Fig. 8A
Protocol: We next examined whether the ASC peptides could inhibit IL-1β production, which is regulated by the inflammasome. We used THP-1 human monocytic cells to study inflammasome activation as they express high levels of NLRP3, ASC, and pro-casp-1. THP-1 cells were incubated with ms_ASC^PYD #1–6 or ms_NLRP3^PYD peptides at increasing concentrations for 4 hours and were then stimulated with LPS for 4 hours, followed by the NLRP3 activator nigericin for 1 hour. IL-1β levels were measured in the culture supernatant. […] The ms_ASC^PYD peptides reduced IL-1β production from THP-1 cells in response to LPS/nigericin stimulation to variable degrees (Fig. 6A). […] We decided to continue investigating in detail the inhibitory effects of ms_ASC^PYD #5 and #6 peptides, as their estimated binding energies matched well with the experimental data of suppression of ASC-dependent IL-1 release in a dose-dependent manner. Since ms_ASCPYD #6 is the shorter version of ms_ASCPYD #5, this selection also enabled us to verify the effect of varying peptide lengths.
Human monocytic THP-1 cells (1 × 10^7 cells) were plated in a 10-cm tissue culture dish and treated with PMA (200 nM) overnight to differentiate monocytic cells into macrophages. Cells were then washed and allowed to rest in fresh media for another day. For stimulation, differentiated THP-1 cells were trypsinized and seeded in 96-well plates (2 × 10^6/well). Peripheral blood mononuclear cells were isolated by Ficoll-Hypaque density gradient centrifugation from buffy coats obtained from anonymous donors provided by the National University Hospital Blood Bank, Singapore. Isolation of monocytes was performed using negative selection with the Monocyte Isolation Kit II (Miltenyi Biotech), following the manufacturer’s instructions. Monocytes were plated in tissue culture non-treated 96-well plates (2.5 × 10^5/well) in 250 µl RPMI 1640-Glutamax media supplemented with 3% human AB serum (Gemini Bio Products).
as §1, §3

Row | SMILES | Caspase-1 activation (caspase-1 p20 in supernatants) [1] | IL-1β secretion (in words) [2] | Percentage of helicity [3] [%] | IL-18 secretion (in words) [4] | Inhibition of IL-1β production ([5]; 50 μM peptide) [%] | Inhibition of IL-1β production ([5]; 100 μM peptide) [%]
1 | CC[C@H](C)[C@@H]1NC(=O)[C@H](CCCCN)NC(=O)[C@H](C)NC(=O)[C@H](CC(C)C)NC(=O)[C@H](CCCCN)NC(=O)[C@](C)(NC(=O)[C@H](C)NC(=O)[C@H](CCCNC(=N)N)NC(=O)[C@H](C)NC(=O)[C@@H](NC(C)=O)[C@@H](C)O)CCCCCCC=CCCC[C@@](C)(C(=O)N[C@@H](CCC(=O)O)C(=O)N[C@@H](CO)C(=O)N[C@H](C(N)=O)C(C)C)NC(=O)[C@H](CCCCN)NC1=O [ms_ASC^PYD #5] (Ac-TARA[R8]KLAKIK[S5]ESV-NH2; staple 5-12) | reduced caspase-1 activation in a dose-dependent manner | effectively inhibited | 95 | effectively inhibited | > 60 | > 90
2 | CC[C@H](C)[C@@H]1NC(=O)[C@H](CCCCN)NC(=O)[C@H](C)NC(=O)[C@H](CCCCN)NC(=O)[C@H](CCCCN)NC(=O)[C@](C)(NC(=O)[C@H](C)NC(=O)[C@H](CCCNC(=N)N)NC(C)=O)CCCCCCC=CCCC[C@@](C)(C(=O)N[C@@H](CCC(=O)O)C(=O)N[C@@H](CO)C(=O)N[C@H](C(N)=O)C(C)C)NC(=O)[C@H](CCCCN)NC1=O [ms_ASC^PYD #6] (Ac-RA[R8]KKAKIK[S5]ESV-NH2; staple 3-10) | reduced caspase-1 activation in a dose-dependent manner | effectively inhibited | 70 | effectively inhibited | > 60 | > 90
